Source: PMC5854716, “Synthesis, molecular docking, ctDNA interaction, DFT calculation and evaluation of antiproliferative and anti-Toxoplasma gondii activities of 2,4-diaminotriazine-thiazole derivatives” (Medicinal Chemistry Research, 2018)
≈ marks a conversion by molar mass, not a printed value.

Tests used:
[1] = tested on: Toxoplasma gondii BK strain; test: T. gondii tachyzoite intracellular proliferation in VERO host cells ([3H]uracil incorporation); type: cell-based; conditions: VERO host cells; for IC50 (50% inhibition of T. gondii proliferation in vitro) / IC50: GraphPad Prism curves; for activity at 0.9 µg/mL / activity at 1.8 µg/mL / activity at 3.9 µg/mL / activity at 7.8 µg/mL / activity at 15.6 µg/mL / activity at 31.2 µg/mL / activity at 62.5 µg/mL / activity at 125 µg/mL / IC50: Toxoplasma gondii; for IC50: read-out: IC50 (50% inhibition of T. gondii proliferation in vitro)
Protocol: (§1) The epithelial cell line VERO (ATCC-Catalog No. CCL-81^TM), derived from the kidney of the African green monkey, Cercopithecus aethiops and fibroblast cell line L-929 (ATCC-Catalog No. CCL-1^TM), derived from Mus musculus (http://www.atcc.org) were grown in Iscoves’s Modified Dulbecco’s Medium (IMDM) supplemented with 10% (v/v) fetal bovine serum (FBS), plus 2 mM L-glutamine, 100 U/ml penicillin, 100.00 µg/ml streptomycin, 5 × 10^−5 M 2-mercaptoethanol and maintained at 37 °C in a 10% CO2 atmosphere. Subcultures were performed via enzymatic cell dissociation in 0.25% trypsin. After dissociation, the cells were placed in culture medium at 4 °C with 10% FBS to inhibit the action of trypsin. The isolated cells were centrifuged for 10 min at 1000×g at 4 °C, and the cells were grown in new bottles. This procedure was repeated when cells reached a confluence of ~90%. All commercial reactants and solvents were purchased from either Sigma-Aldrich Laborchemikalien GmbH (Dzitko et al. [2014]).
(§2) Suspensions of the compounds 4a–l were freshly prepared (5 mg/ml DMSO) before the cells were exposed, and diluted to appropriate concentrations; 0.9, 1.8, 3.9, 7.8, 15.6, 31.2, 62.5, and 125.00 μg/ml with the culture medium. Cells treated with 2.5% DMSO-solvent served as a control in each experiment.
Stock solutions of the Sulfadiazine (100 mg/ml 1 N NaOH; Catalog No. S8626) was freshly prepared before each experiment, and diluted to appropriate concentrations: 5.00, 25.00, 50.00, 125.00, 250.00, 500.00, 1250.00, and 2500.00 μg/ml, respectively in IMDM complete medium. All commercial reactants and solvents were purchased from either Sigma-Aldrich Laborchemikalien GmbH.
Tachyzoites of T. gondii, BK strain, were maintained in female C57BL/6 (H-2^b) and BALB/c (H-2^d) mice (with genetically determined high and low susceptibility, respectively to Toxoplasma infection) via serial intraperitoneal inoculation of 10^5–10^6 parasites per mouse in phosphate-buffered saline (PBS). After 48 to 96 h, parasites were harvested via peritoneal lavage using PBS, pH 7.2, and centrifuged at 200×g for 5 min to remove blood cells and cell debris. The supernatant containing tachyzoites was collected and centrifuged again at 2000×g for 15 min. The final pellet was resuspended in IMDM, quantified in a Burker’s chamber, and used in experimental assays. Inbred mice were kept under standard laboratory conventional conditions. All experimental procedures were conducted according to guidelines of the 9. Local Ethics Commission for Experiments on Animals in Lodz.
VERO, (2 × 10^4 cells/100 µl/well) were grown in complete medium (IMDM) on 96-well plates. After 24 h incubation, a medium was removed and then T. gondii […] tachyzoites, suspended in culture medium supplemented with 0.9–125.00 μg/ml diaminotriazines 4a–l and as a control-sulfadiazine (5.0–2500.0 μg/ml), were added (2 × 10^5 tachyzoites/200 µl/well) to the cell monolayers. After subsequent 48 h incubation 1 µCi/well of [^3H] uracil (Moravek Biochemicals Inc., Brea, CA, USA) was applied to each microculture for further 18–20 h. The amount of the isotope incorporated into the parasite nucleic acid pool, corresponding to the parasite growth, was measured by liquid scintillation counting with 1450 Microbeta Plus Liquid Scintillation Counter (Wallac Oy, Turku, Finland). The cpms of host cells alone (below 250/microculture) were subtracted from cpms of T. gondii infected microcultures (Dzitko et al. [2014]).

VERO cells = test: Cell viability assay (MTT), VERO; type: cell-based, Cercopithecus aethiops; conditions: 24 h; for CC30 VERO: concentration for 30% proliferation inhibition
Protocol: as §1, §2
The effects of tested compounds on the viability of mouse fibroblasts L929 and […] VERO cells were evaluated using the MTT assay. The MTT assay was used according to international standards: ISO 10993-5:2009 (Tests for in vitro cytotoxicity; http://www.iso.org/iso/catalogue_detail.htm? csnumber = 36406). L929 and VERO cells were plated into 96-well plates at a density of 1.0 × 10^4/100 μl/well in culture medium and allowed to attach for 24 h before treatment. Afterwards, culture medium in the plates was replaced by 100 μl compounds suspension at concentration of 0–125 μg/ml and the cells were exposed for 24 h. Then 1 mg/ml MTT (50 μl/well) was added to each well and incubated at 37 °C, 10 % CO2 for 2 h. Mitochondrial dehydrogenases of viable cells reduce the yellowish water-soluble MTT to water-insoluble formazan crystals, which were solubilized with dimethyl sulfoxide (DMSO). The cell culture medium was aspirated cautiously, after which 150 μl DMSO was added to each well and mixed thoroughly. Optical density (OD) was read on the ELISA reader (Multiskan EX, Labsystems; http://www.mtxlsi.com/multiskan_EX.htm) at 550 nm. The results were expressed as percentage viability compared with the treated 2.5% DMSO controls. All experiments were performed in triplicate.

SMILES	T. gondii intracellular proliferation ([1]; 0.9 µg/ml)	T. gondii intracellular proliferation ([1]; 1.8 µg/ml)	T. gondii intracellular proliferation ([1]; 3.9 µg/ml)	T. gondii intracellular proliferation ([1]; 7.8 µg/ml)	T. gondii intracellular proliferation ([1]; 15.6 µg/ml)	T. gondii intracellular proliferation ([1]; 31.2 µg/ml)	T. gondii intracellular proliferation ([1]; 62.5 µg/ml)	IC50 (50% inhibition of T. gondii proliferation in vitro) [1]	Viability VERO (VERO cells; 0.9 µg/ml)	Viability VERO (VERO cells; 1.8 µg/ml)	Viability VERO (VERO cells; 3.9 µg/ml)	Viability VERO (VERO cells; 7.8 µg/ml)	Viability VERO (VERO cells; 15.6 µg/ml)	Viability VERO (VERO cells; 31.2 µg/ml)	Viability VERO (VERO cells; 62.5 µg/ml)	CC30 VERO (VERO cells)	activity at 0.9 µg/mL ([1]; 0.9 µg/ml)	activity at 1.8 µg/mL ([1]; 1.8 µg/ml)	activity at 3.9 µg/mL ([1]; 3.9 µg/ml)	activity at 7.8 µg/mL ([1]; 7.8 µg/ml)	also measured
C/C(=N\Nc1nc(-c2ccc3[nH]c(=O)oc3c2)cs1)c1ccc(Nc2nc(N)nc(N)n2)cc1 [Compound 4l, (E)-6-(2-(2-(1-(4-(4,6-diamino-1,3,5-triazin-2-yloamino)phenyl)ethylidene)hydrazinyl)thiazol-4-yl)-benzo[d]oxazol-2(3H)-on]	99.98%	101.25%	106.91%	79.89%	56.46%	45.15%	20.34%	23.09 µg/mL	97.13%	87.85%	95.16%	91.03%	96.08%	95.40%	97.33%	>62.5 µg/mL	–	–	–	–	–
CC(=O)Nc1ccc(-c2csc(N/N=C(\C)c3ccc(Nc4nc(N)nc(N)n4)cc3)n2)cc1 [Compound 4g, (E)-N^2-(4-(2-(2-(1-(4-(4,6-diamino-1,3,5-triazin-2-yloamino)phenyl)ethylidene)hydraziny)thiazol-4-yl)phenyl)-acetamide]	100.01%	100.69%	69.35%	66.62%	46.71%	42.95%	41.74%	18.70 µg/mL	93.72%	90.59%	95.35%	98.14%	98.43%	98.96%	94.25%	>125.0 µg/mL	–	–	–	–	T. gondii intracellular proliferation ([1]; 125.0 µg/ml): 19.11%; Viability VERO (VERO cells; 125.0 µg/ml): 91.41%
C/C(=N\Nc1nc(-c2ccc(C)cc2)cs1)c1ccc(Nc2nc(N)nc(N)n2)cc1 [Compound 4c, (E)-N^2-(4-(1-(2-(4-(4-tolyl)-1,3-thiazol-2-yl)hydrazinylidene)ethyl)phenyl)-1,3,5-triazine-2,4,6-triamine]	–	–	–	–	–	–	–	–	–	–	–	–	–	–	–	>125.0 µg/mL	102%	102%	110%	100%	activity at 15.6 µg/mL ([1]; 15.6 µg/ml): 86.2%; activity at 31.2 µg/mL ([1]; 31.2 µg/ml): 58.6%; activity at 62.5 µg/mL ([1]; 62.5 µg/ml): 40.1%; activity at 125 µg/mL ([1]; 125.0 µg/ml): 30.9%; IC50 [1]: 51.4 µg/mL (≈ 119 µM)
C/C(=N\Nc1nc(-c2ccc(NS(C)(=O)=O)cc2)cs1)c1ccc(Nc2nc(N)nc(N)n2)cc1 [Compound 4j, (E)-N-(4-(2-(2-(1-(4-(4,6-diamino-1,3,5-triazin-2-yloamino)phenyl)ethylidene)hydrazinyl)thiazol-4-yl)phenyl)-methanesulfonamide]	99.93%	100.25%	99.58%	89.65%	78.25%	67.01%	46.07%	59.87 µg/mL	79.82%	93.81%	93.62%	89.25%	90.98%	96.22%	97.76%	>125.0 µg/mL	–	–	–	–	T. gondii intracellular proliferation ([1]; 125.0 µg/ml): 34.60%; Viability VERO (VERO cells; 125.0 µg/ml): 89.44%
C/C(=N\Nc1nc(-c2ccc(I)cc2)cs1)c1ccc(Nc2nc(N)nc(N)n2)cc1 [Compound 4e, (E)-N^2-(4-(1-(2-(4-(4-iodophenyl)-1,3-thiazol-2-yl)hydrazinylidene)ethyl)phenyl)-1,3,5-triazine-2,4,6-triamine]	–	–	–	–	–	–	–	–	–	–	–	–	–	–	–	>125.0 µg/mL	103%	104%	99.9%	92.8%	activity at 15.6 µg/mL ([1]; 15.6 µg/ml): 80.7%; activity at 31.2 µg/mL ([1]; 31.2 µg/ml): 75.1%; activity at 62.5 µg/mL ([1]; 62.5 µg/ml): 48.7%; activity at 125 µg/mL ([1]; 125.0 µg/ml): 14.6%; IC50 [1]: 49.2 µg/mL (≈ 90.5 µM)
C/C(=N\Nc1nc(-c2ccc(Cl)c(Cl)c2)cs1)c1ccc(Nc2nc(N)nc(N)n2)cc1 [Compound 4i, (E)-N^2-(4-(1-(2-(4-(3,4-dichlorophenyl)-1,3-thiazol-2-yl)hydrazinylidene)ethyl)phenyl)-1,3,5-triazine-2,4,6-triamine]	–	–	–	–	–	–	–	–	–	–	–	–	–	–	–	>62.5 µg/mL	101%	102%	79%	55.9%	activity at 15.6 µg/mL ([1]; 15.6 µg/ml): 45.7%; activity at 31.2 µg/mL ([1]; 31.2 µg/ml): 41.1%; IC50 [1]: 14.9 µg/mL (≈ 30.7 µM)
